# Source: US20240174603A1 (Rappta Therapeutics Oy, priority 2021, published 2024)
# Structures can show the parent of a compound that is named as a salt.
# Tested on: LNCaP cells
# Assay: LNCaP cell viability assay (MTS)
# Type: cell-based
# Conditions: Homo sapiens, LNCaP cell line, 48 hours
# Method: LNCaP cell line was used for the cell viability assay. LNCaP cells were plated in 96-well plates at a density of 5000 cells per well. After 24 hours of plating, the cells were treated with increasing doses of compound (e.g., compounds 1-269) ranging from 1 μM to 80 μM. Relative cell numbers were analyzed after 48 hours using 3-(4,5-dimethylthiazol-2-yl)-5-(3-carboxymethoxyphenyl)-2-(4-sulfophenyl)-2H-tetrazolium (MTS) assay (Promega) according to the manufacturer's instructions.
# The cell viability data was analyzed with GraphPad Prism software. The values were log transformed and analyzed with non-linear regression (curve-fit) using log(inhibitor) vs. response-variable slope (four parameters) and constraining the bottom to equal zero. Unless otherwise indicated, the GI50 values provided in Table 113 correspond to the LNCaP cell viability assays.
row,Structure (SMILES),GI50 [µM]
1,"CN(C)CC(NS(=O)(=O)c1ccc([N+](=O)[O-])c(OC(F)(F)F)c1)c1ccc(Cl)c(Cl)c1 (stereo not shown) [Compound 222, N-(1-(3,4-dichlorophenyl)-2-(dimethylamino)ethyl)-4-nitro-3-(trifluoromethoxy)benzenesulfonamide]",1.34
2,"CN(C)CC(NS(=O)(=O)c1ccc(OC(F)(F)F)nc1)c1ccc(Cl)c(Cl)c1 (stereo not shown) [Compound 157, N-(1-(3,4-dichlorophenyl)-2-(dimethylamino)ethyl)-6-(trifluoromethoxy)pyridine-3-sulfonamide]",17.7

# Same assay, conditions: Homo sapiens, LNCaP, 48 h, LNCaP cell line
row,Structure (SMILES),GI50 [µM]
1,"CC(CN(C)C)NS(=O)(=O)c1ccc(OC(F)(F)F)c([N+](=O)[O-])c1 (stereo not shown) [Compound 254, N-(1-(dimethylamino)propan-2-yl)-3-nitro-4-(trifluoromethoxy)benzenesulfonamide]",1.92
2,"CC1CCN(c2ccccc2CNS(=O)(=O)c2ccc(OC(F)(F)F)cc2)CC1 [Compound 87, N-(2-(4-methylpiperidin-1-yl)benzyl)-4-(trifluoromethoxy)benzenesulfonamide]",23
3,"CN(C)CC(NS(=O)(=O)c1ccc(NC2CCCCC2)cc1)c1ccc(Cl)c(Cl)c1 (stereo not shown) [Compound 268, 4-(cyclohexylamino)-N-(1-(3,4-dichlorophenyl)-2-(dimethylamino)ethyl)benzenesulfonamide]",15.5
4,"O=S(=O)(NCCNS(=O)(=O)c1cc(Br)ccc1Br)c1ccc(OC(F)(F)F)cc1 [Compound 3, 2,5-dibromo-N-(2-((4-(trifluoromethoxy)phenyl)sulfonamido)ethyl)benzenesulfonamide]",24.6
5,"Cc1ccccc1C(NS(=O)(=O)c1ccc(OC(F)(F)F)cc1)C1CCCC(C)C1 (stereo not shown) [Compound 102, N-((3-methylcyclohexyl)(o-tolyl)methyl)-4-(trifluoromethoxy)benzenesulfonamide]",14
6,"O=S(=O)(NCc1ccccc1COC1CCCCC1)c1ccc(OC(F)(F)F)cc1 [Compound 59, N-(2-((cyclohexyloxy)methyl)benzyl)-4-(trifluoromethoxy)benzenesulfonamide]",23
7,"CC(C)CCOc1ccccc1CCNS(=O)(=O)c1ccc(OC(F)(F)F)cc1 [Compound 55, N-(2-(isopentyloxy)phenethyl)-4-(trifluoromethoxy)benzenesulfonamide]",57
8,"Cc1ccc(CNS(=O)(=O)c2ccc(OC(F)(F)F)cc2)c(OCC2CC2)c1 [Compound 75, N-(2-(cyclopropylmethoxy)-4-methylbenzyl)-4-(trifluoromethoxy)benzenesulfonamide]",30
9,"CCC(NS(=O)(=O)c1ccc(OC(F)(F)F)cc1)(C(=O)OC)c1ccccc1 (stereo not shown) [Compound 107, Methyl 2-phenyl-2-((4-(trifluoromethoxy)phenyl)sulfonamido)butanoate]",69
10,"O=[N+]([O-])c1ccc(S(=O)(=O)NCCNS(=O)(=O)c2ccc(OC(F)(F)F)cc2)cc1 [Compound 108, 4-nitro-N-(2-((4-(trifluoromethoxy)phenyl)sulfonamido)ethyl)benzenesulfonamide]",65
11,"CC1(C)CC1(CNS(=O)(=O)c1ccc(OC(F)(F)F)cc1)c1ccccc1 (stereo not shown) [Compound 230, N-((2,2-dimethyl-1-phenylcyclopropyl)methyl)-4-(trifluoromethoxy)benzenesulfonamide]",37.3
12,"CC(C)N(C)c1ccccc1CNS(=O)(=O)c1ccc(OC(F)(F)F)cc1 [Compound 58, N-(2-(isopropyl(methyl)amino)benzyl)-4-(trifluoromethoxy)benzenesulfonamide]",20
13,"CCOC(=O)C(CC1CC=CCC1)NS(=O)(=O)c1ccc(OC(F)(F)F)cc1 (stereo not shown) [Compound 13, Ethyl 3-(cyclohex-3-en-1-yl)-2-((4-(trifluoromethoxy)phenyl)sulfonamido)propanoate]",53.5
14,"O=S(=O)(NCC1(CCOCc2ccccc2)CC1)c1ccc(OC(F)(F)F)cc1 [Compound 83, N-((1-(2-(benzyloxy)ethyl)cyclopropyl)methyl)-4-(trifluoromethoxy)benzenesulfonamide]",38

# Continued, values first:
row,GI50 [µM],Structure (SMILES)
1,11.6,"O=S(=O)(NC(CN1CCNCC1)c1ccc(Cl)cc1)c1ccc(OC(F)(F)F)cc1 (stereo not shown) [Compound 257, N-(1-(4-chlorophenyl)-2-(piperazin-1-yl)ethyl)-4-(trifluoromethoxy)benzenesulfonamide]"
2,23.8,"CCCOc1ccc(S(=O)(=O)NC(CN(C)C)c2ccc(Cl)c(Cl)c2)cc1 (stereo not shown) [Compound 267, N-(1-(3,4-dichlorophenyl)-2-(dimethylamino)ethyl)-4-propoxybenzenesulfonamide]"
3,21.8,"NCC(NS(=O)(=O)c1ccc(OC(F)(F)F)cc1)c1ccc(Cl)c(Cl)c1 (stereo not shown) [Compound 225, N-(2-amino-1-(3,4-dichlorophenyl)ethyl)-4-(trifluoromethoxy)benzenesulfonamide hydrochloride]"
4,75,"O=S(=O)(NC(c1ccc(Cl)cc1)C1CCCC1)c1ccc(OC(F)(F)F)cc1 (stereo not shown) [Compound 86, N-((4-chlorophenyl)(cyclopentyl)methyl)-4-(trifluoromethoxy)benzenesulfonamide]"
5,12.6,"CN1CCN(CC(NS(=O)(=O)c2ccc(OC(F)(F)F)cc2)c2ccc(Cl)c(Cl)c2)CC1 (stereo not shown) [Compound 185, N-(1-(3,4-dichlorophenyl)-2-(4-methylpiperazin-1-yl)ethyl)-4-(trifluoromethoxy)benzenesulfonamide]"
6,23.6,"CN(C)CC(NS(=O)(=O)c1ccc(OC(F)(F)F)cc1Cl)c1ccc(Cl)c(Cl)c1 (stereo not shown) [Compound 151, 2-chloro-N-(1-(3,4-dichlorophenyl)-2-(dimethylamino)ethyl)-4-(trifluoromethoxy)benzenesulfonamide]"
7,24.1,"CNCC(NS(=O)(=O)c1ccc(OC(F)(F)F)cc1)c1ccc(Cl)c(Cl)c1 (stereo not shown) [Compound 242, N-(1-(3,4-dichlorophenyl)-2-(methylamino)ethyl)-4-(trifluoromethoxy)benzenesulfonamide]"
8,23.8,"CN(C)CC(NS(=O)(=O)c1ccc2ccccc2c1)c1ccc(Cl)c(Cl)c1 (stereo not shown) [Compound 146, N-(1-(3,4-dichlorophenyl)-2-(dimethylamino)ethyl)naphthalene-2-sulfonamide]"
9,11.3,"O=S(=O)(NC(CN1CCNCC1)c1ccc(Cl)c(F)c1)c1ccc(OC(F)(F)F)cc1 (stereo not shown) [Compound 258, N-(1-(4-chloro-3-fluorophenyl)-2-(piperazin-1-yl)ethyl)-4-(trifluoromethoxy)benzenesulfonamide]"
10,28.9,"CC(C)CC(NS(=O)(=O)c1ccc(OC(F)(F)F)cc1)c1cccc(C#N)c1 (stereo not shown) [Compound 26, N-(1-(3-cyanophenyl)-3-methylbutyl)-4-(trifluoromethoxy)benzenesulfonamide]"
11,42.4,"CN(C)CC(NS(=O)(=O)c1ccc(OC(F)(F)F)cc1)c1ccc(F)c(Cl)c1 (stereo not shown) [Compound 167, N-(1-(3-chloro-4-fluorophenyl)-2-(dimethylamino)ethyl)-4-(trifluoromethoxy)benzenesulfonamide]"
12,25.4,"CN(C)CC(NS(=O)(=O)c1ccc(C(F)(F)F)cc1)c1ccc(Cl)c(Cl)c1 (stereo not shown) [Compound 161, N-(1-(3,4-dichlorophenyl)-2-(dimethylamino)ethyl)-4-(trifluoromethyl)benzenesulfonamide]"
13,21.7,"CN(C)CC(NS(=O)(=O)c1cccc2ccccc12)c1ccc(Cl)c(Cl)c1 (stereo not shown) [Compound 145, N-(1-(3,4-dichlorophenyl)-2-(dimethylamino)ethyl)naphthalene-1-sulfonamide]"
14,1.77,"CN(C)CC(NS(=O)(=O)c1ccc(OC(F)(F)F)c([N+](=O)[O-])c1)c1ccc(Cl)cc1 (stereo not shown) [Compound 206, N-(1-(4-chlorophenyl)-2-(dimethylamino)ethyl)-3-nitro-4-(trifluoromethoxy)benzenesulfonamide]"
15,35.3,"COC(=O)C[C@H](NS(=O)(=O)c1ccc(OC(F)(F)F)cc1)c1cc(Cl)cc(Cl)c1 [Compound 39, Methyl (S)-3-(3,5-dichlorophenyl)-3-((4-(trifluoromethoxy)phenyl)sulfonamido)propanoate]"
16,12.2,"CN(C)CC(NS(=O)(=O)c1ccc(Oc2ccc(C(F)(F)F)cc2)cc1)c1ccc(Cl)cc1 (stereo not shown) [Compound 194, N-(1-(4-chlorophenyl)-2-(dimethylamino)ethyl)-4-(4-(trifluoromethyl)phenoxy)benzenesulfonamide]"
17,25.4,"CC(C)Oc1ccc(S(=O)(=O)NC(CN(C)C)c2ccc(Cl)c(Cl)c2)cc1 (stereo not shown) [Compound 208, N-(1-(3,4-dichlorophenyl)-2-(dimethylamino)ethyl)-4-isopropoxybenzenesulfonamide]"
18,3.23,"CN(C)CC(NS(=O)(=O)c1ccc(OC(F)(F)F)c([N+](=O)[O-])c1)c1ccc(Cl)c(Cl)c1 (stereo not shown) [Compound 175, N-(1-(3,4-dichlorophenyl)-2-(dimethylamino)ethyl)-3-nitro-4-(trifluoromethoxy)benzenesulfonamide]"
19,6.19,"CN1CCN(CC(NS(=O)(=O)c2ccc(Oc3ccc(C(F)(F)F)cc3)cc2)c2ccc(Cl)c(Cl)c2)CC1 (stereo not shown) [Compound 233, N-(1-(3,4-dichlorophenyl)-2-(4-methylpiperazin-1-yl)ethyl)-4-(4-(trifluoromethyl)phenoxy)benzenesulfonamide]"

# Same assay, conditions: LNCaP cell line, 48 hours
row,GI50 [µM],Structure (SMILES)
1,51.2,"CN(C)CC(NS(=O)(=O)c1ccc(OC(F)(F)F)cc1)c1cccc(C(F)(F)F)c1 (single isomer, unassigned) [Compound 178, N-(2-(dimethylamino)-1-(3-(trifluoromethyl)phenyl)ethyl)-4-(trifluoromethoxy)benzenesulfonamide]"
2,13,"CN(C)CC(NS(=O)(=O)c1ccc(Oc2ccc(C(F)(F)F)cc2)cc1)c1ccc(Cl)c(Cl)c1 (single isomer, unassigned) [Compound 173, N-(1-(3,4-dichlorophenyl)-2-(dimethylamino)ethyl)-4-(4-(trifluoromethyl)phenoxy)benzenesulfonamide]"
